Patent US6461997B1, “Triazole sulfones having herbicidal activity” (Monsanto Technology LLC, priority 1999, dated 2002)

Tests used:
[1] = system: CHEAL (common lambsquarters); experiment: Pre-emergence herbicidal activity, warm season; assay type: in vivo, Chenopodium album; settings: GR80 = lowest tested rate (300, 100, 30, 10 g/ha) with 80% or greater inhibition; approx. 14 days after treating; 30/21° C.
How it was run: (§1)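 Seeds sown in sterilised fertilised topsoil received surface-applied compound in 50:50 acetone/water, typically at 300, 100, 30 and 10 g/ha, then greenhouse-grown at 30/21° C (warm-season species) or 18/13° C (cool-season species). Percent inhibition versus untreated plants was scored at about 14 days, giving GR80; an asterisk marks activity short of 80% at the top rate.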

PANDI (fall panicum) = experiment: Pre-emergence herbicidal activity, warm season; assay type: in vivo, Panicum dichotomiflorum; settings: GR80 = lowest tested rate (300, 100, 30, 10 g/ha) with 80% or greater inhibition; approx. 14 days after treating; 30/21° C.
Protocol: (§2) Tables 5 to 8 summarize results of tests conducted as described below to determine the pre-emergence herbicidal activity, in the form of a GR80 value, of illustrative compounds of this invention. […] Compounds of the invention were typically applied at rates of 300, 100, 30, and 10 g/ha. Where herbicidal activity was evident but 80% inhibition was not achieved at the highest rate tested, an asterisk (*) is shown in the following tables.
(§3) The pre-emergence tests were conducted by the following procedure. Topsoil was sieved to pass through a 1.27 cm screen. Fertilizer was added to the topsoil and the mixture was then sterilized by heating. The topsoil mixture was placed in a pot and compacted to a depth of 1.0 to 1.25 cm from the top of the pot. Seeds of each of several monocotyledonous and dicotyledonous annual plant species were placed on top of the soil. Additional soil was subsequently placed over the seeds to level-fill the pot. A known amount of each test compound dissolved or suspended in an appropriate organic solvent was diluted with a 50:50 mix of acetone and water and applied to the surface of the soil. After treatment the plants were placed in a greenhouse where they received 0.64 cm of overhead irrigation. All subsequent watering consisted of a light overhead mist and/or subirrigation as needed for germination and growth. Tables 5 and 6 below relate to warm season plant species which were placed after pre-emergence treatment in a greenhouse with a 30/21° C. day/night temperature regime. Tables 7 and 8 below relates to cool season plant species placed after pre-emergence treatment in a greenhouse or growth chamber with an 18/13° C. day/night temperature regime.
(§4) Approximately 14 days after planting and treating, the plants were observed and herbicidal efficacy recorded as percent inhibition by comparison with untreated plants.
(§5) The plant species usually regarded as weeds which were utilized in the tests are identified in the tables below according to the following legend, in which “d” indicates a dicotyledonous species and “m” a monocotyledonous species. All monocotyledonous species included in the tests herein are grasses.

SORVU (shattercane) = experiment: Pre-emergence herbicidal activity, warm season; assay type: in vivo, Sorghum vulgare; settings: GR80 = lowest tested rate (300, 100, 30, 10 g/ha) with 80% or greater inhibition; approx. 14 days after treating; 30/21° C.
How it was run: as §1

[2] = system: GALAP (catchweed bedstraw); experiment: Pre-emergence herbicidal activity, cool season; assay type: in vivo, Galium aparine; settings: lowest tested rate with 80% or greater inhibition; rates 300, 100, 30, 10 g/ha; about 14 days
How it was run: as §1

POLCO (wild buckwheat) = experiment: Pre-emergence herbicidal activity, cool season; assay type: in vivo, Polygonum convolvulus; settings: lowest tested rate with 80% or greater inhibition; rates 300, 100, 30, 10 g/ha; about 14 days
How it was run: (§6)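 Seeds were sown in sterilized, fertilized topsoil, covered, and the soil surface was sprayed with compound in 50:50 acetone/water at 300, 100, 30 and 10 g/ha. Pots were held at 30/21 °C day/night (PANMI, DIGSA) or 18/13 °C (ALOMY, POLCO). GR80 came from percent inhibition versus untreated plants at about 14 days.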

SINAR (wild mustard) = experiment: Pre-emergence herbicidal activity, cool season; assay type: in vivo, Sinapis arvensis; settings: lowest tested rate with 80% or greater inhibition; rates 300, 100, 30, 10 g/ha; about 14 days
How it was run: as §1

[3] = system: VERPE (creeping speedwell); experiment: Pre-emergence herbicidal activity, cool season; assay type: in vivo, Veronica persicaria; settings: lowest tested rate with 80% or greater inhibition; rates 300, 100, 30, 10 g/ha; about 14 days
How it was run: as §1

SASKR (russian thistle) = experiment: Pre-emergence herbicidal activity, cool season; assay type: in vivo, Salsola kali; settings: lowest tested rate with 80% or greater inhibition; rates 300, 100, 30, 10 g/ha; about 14 days
How it was run: as §1

STEME (common chickweed) = experiment: Pre-emergence herbicidal activity, cool season; assay type: in vivo, Stellaria media; settings: lowest tested rate with 80% or greater inhibition; rates 300, 100, 30, 10 g/ha; about 14 days
How it was run: as §1

[4] = system: LAMPU (purple deadnettle); experiment: Pre-emergence herbicidal activity, cool season; assay type: in vivo, Lamium purpureum; settings: lowest tested rate with 80% or greater inhibition; rates 300, 100, 30, 10 g/ha; about 14 days
How it was run: as §1

[5] = system: AGSST (creeping bentgrass); experiment: Pre-emergence herbicidal activity, cool season; assay type: in vivo, Agrostis stolonifera; settings: GR80 = lowest tested rate (300, 100, 30, 10 g/ha) with 80% or greater inhibition; approx. 14 days after treating; 18/13° C.
How it was run: as §1

ALOMY (blackgrass) [6] = experiment: Post-emergence herbicidal activity, cool season; assay type: in vivo, Alopecurus myosuroides; settings: abraded plants sprayed at 300, 100, 30 and 10 g/ha; about 14 days after treatment
Protocol: (§7) In another set of tests, the post-emergence activity of compounds of this invention was evaluated on the cool season species listed above. The following procedure was used.
(§8) A pre-prepared topsoil mixture (described above) was placed in a pot and compacted to a depth of 1.0 to 1.25 cm from the top of the pot. Seeds of each of several monocotyledonous and dicotyledonous annual plant species were placed on top of the soil. The seeds were covered with a mixture of 50% topsoil and 50% Rediearth™ in sufficient quantity to level-fill the pots. The pots were then placed on a greenhouse bench and subirrigated as needed.
(§9) When plants growing from the seeds had emerged and reached a suitable growth stage for post-emergence treatment, typically 9 to 14 days after planting, above-ground parts of the plants were subjected to a pre-treatment involving abrasion to create greater opportunity for foliar uptake of subsequently applied compounds. Abrasion was performed using garnet 200w particles applied with a Sears Craftsman hand-held sandblaster operated at approximately 850 kPa (50 psig) pressure.
(§10) A known amount of each test compound dissolved or suspended in an appropriate organic solvent was diluted with a 50:50 mix of acetone and water and applied to the plants by spraying with a standard spray nozzle in a spray volume of […] at a spray pressure of 511 kPa (30 psig). Only the compounds of Examples 1, 8-15 and 17-22 were included in post-emergence tests. Application rates for these compounds were 300, 100, 30 and 10 g/ha. Control plants were abraded but not sprayed.
(§11) After treatment the plants were placed in a greenhouse with an 18/13° C. day/night temperature regime and were subsequently watered as needed for growth. Approximately 14 days after treatment, the plants were observed and herbicidal efficacy recorded as percent inhibition by comparison with control plants. GR80 values were assigned for each compound as described above for the pre-emergence tests.

SETVI (green foxtail) [7] = experiment: Post-emergence herbicidal activity, cool season; assay type: in vivo, Setaria viridis; settings: abraded plants sprayed at 300, 100, 30 and 10 g/ha; about 14 days after treatment
Protocol: as §7, §8, §9, §10, §11

LOLMG (annual ryegrass) [8] = experiment: Post-emergence herbicidal activity, cool season; assay type: in vivo, Lolium multiflorum; settings: abraded plants sprayed at 300, 100, 30 and 10 g/ha; about 14 days after treatment
Protocol: as §7, §8, §9, §10, §11

BROTE (downy brome) [9] = experiment: Post-emergence herbicidal activity, cool season; assay type: in vivo, Bromus tectorum; settings: abraded plants sprayed at 300, 100, 30 and 10 g/ha; about 14 days after treatment
Protocol: as §7, §8, §9, §10, §11

AVEFA (wild oat) = experiment: Post-emergence herbicidal activity, cool season; assay type: in vivo, Avena fatua; settings: abraded plants sprayed at 300, 100, 30 and 10 g/ha; about 14 days after treatment
Protocol: as §7, §8, §9, §10, §11

[10] = system: AEGCY (jointed goatgrass); experiment: Post-emergence herbicidal activity, cool season; assay type: in vivo, Aegilops cylindrica; settings: abraded plants sprayed at 300, 100, 30 and 10 g/ha; about 14 days after treatment
Protocol: as §7, §8, §9, §10, §11

[11] = system: AGSST (creeping bentgrass); experiment: Post-emergence herbicidal activity, cool season; assay type: in vivo, Agrostis stolonifera; settings: abraded plants sprayed at 300, 100, 30 and 10 g/ha; about 14 days after treatment
Protocol: as §7, §8, §9, §10, §11

[12] = system: AGRRE (quackgrass (seedling)); experiment: Post-emergence herbicidal activity, cool season; assay type: in vivo, Elymus repens; settings: abraded plants sprayed at 300, 100, 30 and 10 g/ha; about 14 days after treatment
Protocol: as §7, §8, §9, §10, §11

SOLNI (black nightshade) = experiment: Pre-emergence herbicidal activity, warm season; assay type: in vivo, Solanum nigrum; settings: GR80 = lowest tested rate (300, 100, 30, 10 g/ha) with 80% or greater inhibition; approx. 14 days after treating; 30/21° C.
How it was run: as §1

ECHCG (barnyardgrass) = experiment: Pre-emergence herbicidal activity, warm season; assay type: in vivo, Echinochloa crus-galli; settings: GR80 = lowest tested rate (300, 100, 30, 10 g/ha) with 80% or greater inhibition; approx. 14 days after treating; 30/21° C.
How it was run: as §1

[13] = system: PANMI (wild proso millet); experiment: Pre-emergence herbicidal activity, warm season; assay type: in vivo, Panicum miliaceum; settings: GR80 = lowest tested rate (300, 100, 30, 10 g/ha) with 80% or greater inhibition; approx. 14 days after treating; 30/21° C.
How it was run: as §6

SETFA (giant foxtail) = experiment: Pre-emergence herbicidal activity, warm season; assay type: in vivo, Setaria faberi; settings: GR80 = lowest tested rate (300, 100, 30, 10 g/ha) with 80% or greater inhibition; approx. 14 days after treating; 30/21° C.
How it was run: as §1

ALOMY (blackgrass) [14] = experiment: Pre-emergence herbicidal activity, cool season; assay type: in vivo, Alopecurus myosuroides; settings: GR80 = lowest tested rate (300, 100, 30, 10 g/ha) with 80% or greater inhibition; approx. 14 days after treating; 18/13° C.
How it was run: as §6

SETVI (green foxtail) [15] = experiment: Pre-emergence herbicidal activity, cool season; assay type: in vivo, Setaria viridis; settings: GR80 = lowest tested rate (300, 100, 30, 10 g/ha) with 80% or greater inhibition; approx. 14 days after treating; 18/13° C.
How it was run: as §1

LOLMG (annual ryegrass) [16] = experiment: Pre-emergence herbicidal activity, cool season; assay type: in vivo, Lolium multiflorum; settings: GR80 = lowest tested rate (300, 100, 30, 10 g/ha) with 80% or greater inhibition; approx. 14 days after treating; 18/13° C.
How it was run: as §1

BROTE (downy brome) [17] = experiment: Pre-emergence herbicidal activity, cool season; assay type: in vivo, Bromus tectorum; settings: GR80 = lowest tested rate (300, 100, 30, 10 g/ha) with 80% or greater inhibition; approx. 14 days after treating; 18/13° C.
Protocol: as §2, §3, §4, §5

[18] = system: AGRRE (quackgrass (seedling)); experiment: Pre-emergence herbicidal activity, cool season; assay type: in vivo, Elymus repens; settings: GR80 = lowest tested rate (300, 100, 30, 10 g/ha) with 80% or greater inhibition; approx. 14 days after treating; 18/13° C.
Protocol: as §2, §3, §4, §5

CCN(CC)C(=O)n1cnc(S(=O)(=O)C(F)(F)SCCOC(=O)c2ccccc2)n1 [Example 22]
Pre-emergence activity (GR80) CHEAL [1]: 300 g/ha
Pre-emergence activity (GR80) PANDI (PANDI (fall panicum)): 300 g/ha
Pre-emergence activity (GR80) SORVU (SORVU (shattercane)): * (activity observed, at least at highest rate, but <80% inhibition)
Pre-emergence activity GR80, GALAP [2]: [empty]
Pre-emergence activity GR80, POLCO (POLCO (wild buckwheat)): [empty]
Pre-emergence activity GR80, SINAR (SINAR (wild mustard)): [empty]
Pre-emergence activity GR80, VERPE [3]: 300 g/ha
Pre-emergence activity GR80, SASKR (SASKR (russian thistle)): [empty]
Pre-emergence activity GR80, STEME (STEME (common chickweed)): [empty]
Pre-emergence activity GR80, LAMPU [4]: [empty]
Pre-emergence activity (GR80) AGSST [5]: 300 g/ha
Post-emergence activity GR80, ALOMY (ALOMY (blackgrass) [6]): [empty]
Post-emergence activity GR80, SETVI (SETVI (green foxtail) [7]): [empty]
Post-emergence activity GR80, LOLMG (LOLMG (annual ryegrass) [8]): [empty]
Post-emergence activity GR80, BROTE (BROTE (downy brome) [9]): [empty]
Post-emergence activity GR80, AVEFA (AVEFA (wild oat)): [empty]
Post-emergence activity GR80, AEGCY [10]: [empty]
Post-emergence activity GR80, AGSST [11]: [empty]
Post-emergence activity GR80, AGRRE [12]: [empty]

CCSC(F)(F)S(=O)(=O)c1ncn(C(=O)N(C)CCOC)n1 [Example 52]
Pre-emergence activity (GR80) SOLNI (SOLNI (black nightshade)): 300 g/ha
Pre-emergence activity (GR80) ECHCG (ECHCG (barnyardgrass)): 300 g/ha
Pre-emergence activity (GR80) PANMI [13]: 100 g/ha
Pre-emergence activity (GR80) SETFA (SETFA (giant foxtail)): 300 g/ha
Pre-emergence activity (GR80) PANDI (PANDI (fall panicum)): 30 g/ha
Pre-emergence activity GR80, GALAP [2]: [empty]
Pre-emergence activity GR80, POLCO (POLCO (wild buckwheat)): [empty]
Pre-emergence activity GR80, SINAR (SINAR (wild mustard)): 300 g/ha
Pre-emergence activity GR80, VERPE [3]: 30 g/ha
Pre-emergence activity GR80, SASKR (SASKR (russian thistle)): 100 g/ha
Pre-emergence activity GR80, STEME (STEME (common chickweed)): [empty]
Pre-emergence activity GR80, LAMPU [4]: [empty]
Pre-emergence activity (GR80) ALOMY (ALOMY (blackgrass) [14]): 300 g/ha
Pre-emergence activity (GR80) SETVI (SETVI (green foxtail) [15]): 300 g/ha
Pre-emergence activity (GR80) LOLMG (LOLMG (annual ryegrass) [16]): 300 g/ha
Pre-emergence activity (GR80) BROTE (BROTE (downy brome) [17]): 300 g/ha
Pre-emergence activity (GR80) AGSST [5]: 300 g/ha
Pre-emergence activity (GR80) AGRRE [18]: 100 g/ha
